The values that follow are results of earlier work, collected in publication PMC12337022, “Randomized, Double-Blind, Crossover Study Comparing the Bioavailability of 4 Ashwagandha (Withania somnifera (L.) Dunal) Extracts in Healthy Adults Under Fasting Condition” (Current Therapeutic Research, Clinical and Experimental, 2025).

Where two headings read alike, the source gives them in different places.

In series [1] the test system is Madin-Darby canine kidney cells.
Details of series [2]: method as in Dai et al 20. Particulars: rat and human liver microsomes; ref Dai et al 20.
On the set-up of series [3]: method as in Pires et al 27. The conditions noted are these: Phase I dose-escalation, 13 participants, highest dose level tested, HPLC sensitivity 50 ng/mL; ref Pires et al 27.
Details of series [4]: method as in Singh et al 25. The conditions noted are these: Sprague-Dawley rats, orally at 25 mg/kg and intravenously at 2 mg/kg; ref Singh et al 25.
[5] abbreviates: Madin-Darby canine kidney cells, in vitro.

For the compound 1,2-deoxy-withastramonolide, the permeability entry in series [1] (setting [5]) is “highly permeable”. On to `CC1=C(CO)C(=O)O[C@@H]([C@@H](C)[C@H]2CC[C@H]3[C@@H]4C[C@H]5O[C@]56[C@@H](O)C=CC(=O)[C@]6(C)[C@H]4CC[C@]23C)C1` [withaferin A], for which the permeability result in series [1] (setting [5]) is listed as “low permeability”. For the same compound, the half-life in series [2] is 5.6 min. For the same compound, in series [3], the detectability in plasma result is listed as “not detectable”. Further, the oral bioavailability entry in series [4] is “about 5%”.

In the case of `CC1=C(C)C(=O)O[C@@H]([C@](C)(O)[C@H]2CC[C@H]3[C@@H]4[C@@H]5O[C@@H]5[C@@]5(O)CC=CC(=O)[C@]5(C)[C@H]4CC[C@]23C)C1` [withanolide A], in series [1] (MDCK), the permeability entry is given as “highly permeable”. Consider `CC1=C(C)C(=O)O[C@@H]([C@@H](C)[C@H]2CC[C@H]3[C@@H]4[C@@H]5O[C@@H]5[C@@]5(O)CC=CC(=O)[C@]5(C)[C@H]4CC[C@]23C)C1` [withanolide B], for which the permeability result in series [1] (MDCK) is on record as “highly permeable”.

Take `CC1=C(C)C(=O)O[C@@H]([C@@H](C)[C@@]2(O)CC[C@H]3[C@@H]4[C@@H]5O[C@@H]5[C@@]5(O)CC=CC(=O)[C@]5(C)[C@H]4CC[C@@]32C)C1` [withanone]: the permeability entry in series [1] (setting [5]) is on record as “highly permeable”. Consider `CC1=C(CO)C(=O)O[C@@H]([C@@H](C)[C@H]2CC[C@H]3[C@@H]4CC=C5C[C@@H](O[C@@H]6O[C@H](CO[C@@H]7O[C@H](CO)[C@@H](O)[C@H](O)[C@H]7O)[C@@H](O)[C@H](O)[C@H]6O)C[C@H](O)[C@]5(C)[C@H]4CC[C@]23C)C1` [withanoside IV], for which the permeability entry in series [1] (MDCK) is recorded as “low permeability”. In the case of `CC1=C(C)C(=O)O[C@@H]([C@@H](C)[C@H]2CC[C@H]3[C@@H]4CC=C5C[C@@H](O[C@@H]6O[C@H](CO[C@@H]7O[C@H](CO)[C@@H](O)[C@H](O)[C@H]7O)[C@@H](O)[C@H](O)[C@H]6O)C[C@H](O)[C@]5(C)[C@H]4CC[C@]23C)C1` [withanoside V], the permeability entry in series [1] (MDCK) is given as “low permeability”.
